Consider 31 compounds from patent publication US10590085B2, “Heterocyclic amides as kinase inhibitors” (GlaxoSmithKline Intellectual Property Development Limited, priority 2015, dated 2020).

One experiment deals with T1, RIP1 kinase (Homo sapiens, UniProt Q13546).
T1 sequence (Q13546 1-375 limits assumed): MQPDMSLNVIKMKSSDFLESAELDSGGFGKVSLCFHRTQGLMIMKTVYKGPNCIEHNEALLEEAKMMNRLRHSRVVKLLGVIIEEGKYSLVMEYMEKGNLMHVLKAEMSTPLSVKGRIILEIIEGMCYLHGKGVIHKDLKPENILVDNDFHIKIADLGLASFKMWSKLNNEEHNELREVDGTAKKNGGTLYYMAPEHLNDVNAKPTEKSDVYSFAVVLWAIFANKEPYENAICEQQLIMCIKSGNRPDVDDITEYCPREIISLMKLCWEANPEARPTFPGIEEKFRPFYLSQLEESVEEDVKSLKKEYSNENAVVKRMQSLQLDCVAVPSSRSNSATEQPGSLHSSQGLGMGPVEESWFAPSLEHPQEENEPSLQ
Nature of the experiment: fluorescent polarization based binding assay. The settings on record: mean value, minimum of 2 experiments. An excerpt:
A fluorescent polarization based binding assay was used to asses the activity of the compounds of this invention, the details of which are disclosed in International Patent Appln. No. PCT/IB2014/059004, now, International Patent Appln. Pub.

In experiment [1] the test system is human monocytic leukemia U937 cells. Nature of the experiment: necroptosis assay in U937 cells. The settings on record: viability by cellular ATP (Cell Titer-Glo); for IC50: Homo sapiens, U-937, U937 cells, read-out: mean pIC50, inhibition of necrosis in U937 cells (converted). The experiment is classed as cell-based. How it is done: (§1) The efficacy of RIP1 inhibitors can be tested […] in vitro using a human monocytic leukemia U937 or mouse L929 fibrosarcoma cells in a necroptosis assay. As determined using the method described in He, S. et al. 2009. Cell 137(6):1100-1111 and International Patent Appln. No. PCT/IB2014/059004, now, International Patent Appln. Pub.
(§2) Viability was measured by quantitating cellular levels of ATP using the Cell Titer-Glo kit. All data are means±standard deviation of the mean.

The test system of experiment [2] is mouse L929 fibrosarcoma cells. Nature of the experiment: necroptosis assay in L929 cells. The experiment is classed as cell-based. The settings on record: viability by cellular ATP (Cell Titer-Glo), read-out: mean pIC50, inhibition of necrosis in L929 cells (converted). How it is done: as §1, §2

`O=C(C1CCN(c2ccccn2)CC1)N1N=CC[C@H]1c1cccnc1` [Example 70, (S)-(1-(pyridin-2-yl)piperidin-4-yl) (5-(pyridin-3-yl)-4,5-dihydro-1H-pyrazol-1-yl)-methanone] had an IC50 at RIP1 kinase of roughly 398 nM.
In the case of `Cc1ccc(C(=O)N2N=CCC2c2ccccc2)cc1` (centres unmarked) [Example 17, (5-phenyl-4,5-dihydro-1H-pyrazol-1-yl)(p-tolyl)-methanone], the IC50 was roughly 126 nM on RIP1 kinase and roughly 631 nM in experiment [1].
Taken in the same sequence, the figures for `O=C(C1CCN(c2ccc(F)cn2)CC1)N1N=CC[C@H]1c1ccccc1` [Example 3, (S)-(1-(5-fluoropyridin-2-yl)piperidin-4-yl)(5-phenyl-4,5-dihydro-1H-pyrazol-1-yl)methanone] were 1 to 10 nM and 1 to 100 nM.
The like results for `O=C(N1N=CCC1c1ccccc1)C1(F)CCN(c2ncc(F)cn2)CC1` (centres unmarked) [Example 189, (4-fluoro-1-(5-fluoropyrimidin-2-yl)piperidin-4-yl)(5-phenyl-4,5-dihydro-1H-pyrazol-1-yl)methanone] were, in that order, 1 to 10 nM and 1 to 100 nM.
The like results for `O=C(C1CCN(c2ncccn2)CC1)N1N=CC[C@H]1c1cccnc1` [Example 32, (S)-(5-(pyridin-3-yl)-4,5-dihydro-1H-pyrazol-1-yl)(1-(pyrimidin-2-yl)-piperidin-4-yl)-methanone] were, in that order, roughly 31.6 nM and roughly 158 nM.
On RIP1 kinase, `CC(=O)N1CCC(C(=O)N2N=CCC2c2ccc3c(c2)OCO3)CC1` (centres unmarked) [Example 12, 1-(4-(5-(benzo[d][1,3]-dioxol-5-yl)-4,5-dihydro-1H-pyrazole-1-carbonyl)-piperidin-1-yl)ethanone] had an IC50 of roughly 501 nM.
Turning to `CC(C)(C)C(=O)N1N=CC[C@H]1c1ccc(Cl)c(Cl)c1` [Example 40, (S)-1-(5-(3,4-dichlorophenyl)-4,5-dihydro-1H-pyrazol-1-yl)-2,2-dimethyl-propan-1-one], the IC50 at RIP1 kinase was roughly 50.1 nM; in experiment [2], roughly 15.8 nM.
The compound `O=C(C1CCN(c2ncccn2)CC1)N1N=CCC1c1cncc(F)c1` (centres unmarked) [Example 11, (5-(5-fluoropyridin-3-yl)-4,5-dihydro-1H-pyrazol-1-yl)(1-(pyrimidin-2-yl)-piperidin-4-yl)methanone] showed an IC50 on RIP1 kinase of roughly 31.6 nM.
Take `O=C(C1CCN(c2ncccn2)CC1)N1N=CC[C@H]1c1ccccc1` [Example 172, (S)-(5-phenyl-4,5-dihydro-1H-pyrazol-1-yl)(1-(pyrimidin-2-yl)piperidin-4-yl)methanone]: in experiment [2], the IC50 was roughly 631 nM.
`CC(C)(C)C(=O)N1N=CC[C@H]1c1ccc(C(F)(F)F)cc1` [Example 62, (S)-2,2-dimethyl-1-(5-(4-(trifluoromethyl)-phenyl)-4,5-dihydro-1H-pyrazol-1-yl)propan-1-one]: the IC50 on RIP1 kinase is roughly 79.4 nM. In addition, the “mean pIC50, inhibition of necrosis in U937 cells” value in experiment [1] was roughly 7.2.
With `Cc1ccc([C@@H]2CC=NN2C(=O)C(C)(C)C)cn1` [Example 50, (S)-2,2-dimethyl-1-(5-(6-methylpyridin-3-yl)-4,5-dihydro-1H-pyrazol-1-yl)propan-1-one], the IC50 on RIP1 kinase is roughly 631 nM; in experiment [1] it was roughly 158 nM; in experiment [2], roughly 20 nM.
`O=C(C1CCN(c2ccc(F)cn2)CC1)N1N=CCC1c1ccccc1` (centres unmarked) [Example 2, (1-(5-fluoropyridin-2-yl)-piperidin-4-yl)(5-phenyl-4,5-dihydro-1H-pyrazol-1-yl)methanone]: the IC50 was roughly 39.8 nM on RIP1 kinase and roughly 200 nM in experiment [2].
For the compound `O=C(C1CCN(c2ncc(F)cn2)CC1)N1N=CC[C@H]1c1ccccc1` [Example 7, (S)-(1-(5-fluoropyrimidin-2-yl)piperidin-4-yl)(5-phenyl-4,5-dihydro-1H-pyrazol-1-yl)methanone], the values for the IC50 (on RIP1 kinase; in experiment [1]) were 1 to 10 nM and 1 to 100 nM, respectively.
Regarding `CC(C)(C)C(=O)N1N=CC[C@H]1c1cccc(Cl)c1` [Example 44, (S)-1-(5-(3-chlorophenyl)-4,5-dihydro-1H-pyrazol-1-yl)-2,2-dimethyl propan-1-one], in experiment [2], the IC50 was roughly 39.8 nM.
As to `CC(C)(C)C(=O)N1N=CC[C@H]1c1cccc2[nH]ccc12` [Example 93, (S)-1-(5-(1H-indol-4-yl)-4,5-dihydro-1H-pyrazol-1-yl)-2,2-dimethylpropan-1-one], the IC50 is roughly 100 nM on RIP1 kinase and roughly 79.4 nM in experiment [2]. In addition, the “mean pIC50, inhibition of necrosis in U937 cells” value in experiment [1] was roughly 7.0.
The like results for `CC(C)(C)C(=O)N1N=CC[C@H]1c1cncc(F)c1` [Example 15, (S)-1-(5-(5-fluoro-pyridin-3-yl)-4,5-dihydro-1H-pyrazol-1-yl)-2,2-dimethyl-propan-1-one] were, in that order, roughly 79.4 nM, roughly 20 nM and roughly 7.2.
For the compound `CC(C)(C)C(=O)N1N=CC[C@H]1c1ccc2[nH]ccc2c1` [Example 91, (S)-1-(5-(1H-indol-5-yl)-4,5-dihydro-1H-pyrazol-1-yl)-2,2-dimethylpropan-1-one], the IC50 on RIP1 kinase was roughly 251 nM; in experiment [1], roughly 100 nM; in experiment [2] it was roughly 251 nM.
As to `CC(C)(C)C(=O)N1N=CC[C@H]1c1cccc(F)c1` [Example 68, (S)-1-(5-(3-fluorophenyl)-4,5-dihydro-1H-pyrazol-1-yl)-2,2-dimethyl-propan-1-one 2,2,2-trifluoroacetate], the IC50 in experiment [2] is roughly 5.01 nM.
The same measure, in the same setting: with `CC(C)(C)C(=O)N1N=CC[C@H]1C1CCCCC1` [Example 56, (S)-1-(5-cyclohexyl-4,5-dihydro-1H-pyrazol-1-yl)-2,2-dimethylpropan-1-one] the figure was roughly 50.1 nM.
Turning to `Cc1ccc(C(=O)N2CCC(C(=O)N3N=CCC3c3ccccc3)CC2)s1` (centres unmarked) [Example 122, (5-methylthiophen-2-yl)(4-(5-phenyl-4,5-dihydro-1H-pyrazole-1-carbonyl)piperidin-1-yl)methanone], in experiment [1], the IC50 was 1 to 100 nM.
The same measure, in the same setting: with `O=C(c1ccc(F)cn1)N1CCC(C(=O)N2N=CCC2c2ccccc2)CC1` (centres unmarked) [Example 108, (1-(5-fluoro-picolinoyl)piperidin-4-yl)(5-phenyl-4,5-dihydro-1H-pyrazol-1-yl)methanone] the figure was 1 to 100 nM.
On the same count and under the same terms, the same measure for `O=C(c1cccc(Cl)n1)N1CCC(C(=O)N2N=CCC2c2ccccc2)CC1` (centres unmarked) [Example 105, (1-(6-chloro-picolinoyl)piperidin-4-yl)(5-phenyl-4,5-dihydro-1H-pyrazol-1-yl)methanone]: 1 to 100 nM.
As to `O=C(c1ccc(F)cc1)N1CCC(C(=O)N2N=CCC2c2ccccc2)CC1` (centres unmarked) [Example 130, (1-(4-fluoro-benzoyl)piperidin-4-yl)(5-phenyl-4,5-dihydro-1H-pyrazol-1-yl)methanone], in experiment [1], the IC50 is 1 to 100 nM.
Same read-out and setting: with `O=C(c1noc2ccccc12)N1CCC(C(=O)N2N=CCC2c2ccccc2)CC1` (centres unmarked) [Example 146, benzo[d]isoxazol-3-yl(4-(5-phenyl-4,5-dihydro-1H-pyrazole-1-carbonyl)piperidin-1-yl)methanone] the figure was 1 to 100 nM; with `O=C(C1CCN(c2ccc(C(F)(F)F)cn2)CC1)N1N=CCC1c1ccccc1` (centres unmarked) [Example 179, (5-phenyl-4,5-dihydro-1H-pyrazol-1-yl)(1-(5-(trifluoromethyl)pyridin-2-yl)piperidin-4-yl)methanone 2,2,2-trifluoroacetate], 1 to 100 nM; with `O=C(c1cnco1)N1CCC(C(=O)N2N=CCC2c2ccccc2)CC1` (centres unmarked) [Example 147, oxazol-5-yl(4-(5-phenyl-4,5-dihydro-1H-pyrazole-1-carbonyl)piperidin-1-yl)methanone], 1 to 100 nM.
On the same count and under the same terms, the same measure for `O=C(C1CCN(c2nc3ccccc3o2)CC1)N1N=CCC1c1ccccc1` (centres unmarked) [Example 180, (1-(benzo[d]oxazol-2-yl)piperidin-4-yl)(5-phenyl-4,5-dihydro-1H-pyrazol-1-yl)methanone 2,2,2-trifluoroacetate]: 1 to 100 nM.
On the same count and under the same terms, the same measure for `O=C(c1nc2ccccc2s1)N1CCC(C(=O)N2N=CCC2c2ccccc2)CC1` (centres unmarked) [Example 139, beno[d]thiazol-2-yl(4-(5-phenyl-4,5-dihydro-1H-pyrazole-1-carbonyl)piperidin-1-yl)methanone]: 1 to 100 nM; for `CC1(C(=O)N2N=CCC2c2ccccc2)CCN(c2ncc(F)cn2)CC1` (centres unmarked) [Example 190, (1-(5-fluoropyrimidin-2-yl)-4-methylpiperidin-4-yl)(5-phenyl-4,5-dihydro-1H-pyrazol-1-yl)methanone]: 1 to 100 nM; for `N#Cc1ccc(C2CC=NN2C(=O)C2CCN(c3ncc(F)cn3)CC2)cc1` (centres unmarked) [Example 188, 4-(1-(1-(5-fluoropyrimidin-2-yl)piperidine-4-carbonyl)-4,5-dihydro-1H-pyrazol-5-yl)benzonitrile]: 1 to 100 nM.
`CC(C)(C)C(=O)N1N=CCC1c1cccc(F)c1` (centres unmarked) [Example 67, 1-(5-(3-fluoro-phenyl)-4,5-dihydro-1H-pyrazol-1-yl)-2,2-dimethylpropan-1-one 2,2,2-trifluoroacetate]: in experiment [1], the IC50 is 1 to 100 nM.
